Assay results: patent publication US10336762B2 (priority 2017, dated 2019)
Read-outs that look alike come from different tables or passages of the source.

Key:
IRAK4 enzyme = IRAK4 enzyme (Homo sapiens (Human), UniProt Q9NWZ3); test: biochemical; format: biochemical; settings: IRAK4 enzyme, 500 μM ATP
TNFα = test: cells; format: cell-based, human; settings: LPS-stimulated human monocytes, read-out: EC50 TNF
[1] = Homo sapiens, Monocyte, TNFα content
[2] = Homo sapiens, Monocyte, TNFα by TR-FRET

IRAK4 enzyme, sequence (Q9NWZ3 whole entry): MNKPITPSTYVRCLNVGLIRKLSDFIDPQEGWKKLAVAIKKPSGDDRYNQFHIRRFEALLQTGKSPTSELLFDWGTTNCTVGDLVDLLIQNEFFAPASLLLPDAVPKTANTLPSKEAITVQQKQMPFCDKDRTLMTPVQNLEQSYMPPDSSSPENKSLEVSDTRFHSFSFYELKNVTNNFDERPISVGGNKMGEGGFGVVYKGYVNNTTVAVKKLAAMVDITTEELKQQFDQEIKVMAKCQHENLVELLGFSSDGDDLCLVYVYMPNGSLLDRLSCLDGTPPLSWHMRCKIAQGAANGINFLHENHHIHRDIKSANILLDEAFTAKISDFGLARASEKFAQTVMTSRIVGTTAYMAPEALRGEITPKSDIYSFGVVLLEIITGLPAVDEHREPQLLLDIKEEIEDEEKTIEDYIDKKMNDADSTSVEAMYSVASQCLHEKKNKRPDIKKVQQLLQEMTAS

Structure (SMILES)	IC50 (IRAK4 enzyme; TR-FRET (HTRF)) [nM]	EC50 (TNFα; [1]) [nM]	IC50 (IRAK4 enzyme; TR-FRET) [nM]	EC50 (TNFα; [2]) [nM]	EC50 (TNFα; TNFα content) [nM]
COC(=O)NC(C)(C)CCCNc1cc(-c2ccc3cc(C#N)cnn23)ncc1C(=O)NC[C@@H](F)C(C)(C)O [Example 726, (R)-methyl (5-((2-(3-cyanopyrrolo[1,2-b]pyridazin-7-yl)-5-((2-fluoro-3-hydroxy-3-methylbutyl)carbamoyl)pyridin-4-yl)amino)-2-methylpentan-2-yl) carbamate]	4	169			
CC(=O)NC12CCC(NC(=O)c3cnc(-c4ccc5cc(C#N)cnn45)cc3NC(C)C)(CC1)CC2 [Example 131, N-(4-acetamido-bicyclo[2.2.2]octan-1-yl)-6-(3-cyanopyrrolo[1,2-b]pyridazin-7-yl)-4-(isopropylamino) nicotinamide]		154	1		
CC(C)(O)[C@H](F)CNC(=O)c1cnc(-c2ccc3cc(C#N)cnn23)cc1N[C@H]1CCC(=O)NC1 [Example 368, 6-(3-cyanopyrrolo[1,2-b]pyridazin-7-yl)-N-((R)-2-fluoro-3-hydroxy-3-methylbutyl)-4-(((S)-6-oxopiperidin-3-yl)amino)nicotinamide]		2890	5		
CC(C)COC(=O)N[C@H]1CC[C@H](Nc2cc(-c3ccc4cc(C#N)cnn34)ncc2C(=O)NC[C@@H](F)C(C)(C)O)CC1 [Example 290, isobutyl ((1R,4r)-4-((2-(3-cyanopyrrolo[1,2-b]pyridazin-7-yl)-5-(((R)-2-fluoro-3-hydroxy-3-methylbutyl)carbamoyl)pyridin-4-yl)amino)cyclohexyl)carbamate]		121	1		
CC(C)(O)[C@H](F)CNC(=O)c1cnc(-c2ccc3cc(C#N)cnn23)cc1Nc1ccc(-n2cncn2)cc1 [Example 762, (R)-4-((4-(1H-1,2,4-triazol-1-yl)phenyl)amino)-6-(3-cyanopyrrolo[1,2-b]pyridazin-7-yl)-N-(2-fluoro-3-hydroxy-3-methylbutyl)nicotinamide]	< 1	7			
CC1(C)OCCC1Nc1cc(-c2ccc3cc(C#N)cnn23)ncc1C(=O)NC[C@@H](F)C(C)(C)O (stereo partly drawn) [Example 130, 6-(3-cyanopyrrolo[1,2-b]pyridazin-7-yl)-4-((2,2-dimethyltetrahydrofuran-3-yl)amino)-N-((R)-2-fluoro-3-hydroxy-3-methylbutyl)nicotinamide]		221	3		
CCOc1cnc(Nc2cc(-c3ccc4cc(C#N)cnn34)ncc2C(=O)NC[C@@H](F)C(C)(C)O)cn1 [Example 841, (R)-6-(3-cyanopyrrolo[1,2-b]pyridazin-7-yl)-4-((5-ethoxypyrazin-2-yl)amino)-N-(2-fluoro-3-hydroxy-3-methylbutyl)nicotinamide]			< 1	29	
CC(C)(O)[C@H](F)CNC(=O)c1cnc(-c2ccc3cc(C#N)cnn23)cc1NC1CCN(C(=O)c2ccoc2)CC1 [Example 156, (R)-6-(3-cyanopyrrolo[1,2-b]pyridazin-7-yl)-N-(2-fluoro-3-hydroxy-3-methylbutyl)-4-((1-(furan-3-carbonyl)piperidin-4-yl)amino)nicotinamide]		179	4		
CC(C)(O)[C@H](F)CNC(=O)c1cnc(-c2ccc3cc(C#N)cnn23)cc1Nc1cnc(N2CC3CC(C2)O3)nc1 [Example 920, 4-((2-(6-oxa-3-aza-bicyclo[3.1.1]heptan-3-yl)pyrimidin-5-yl)amino)-6-(3-cyanopyrrolo[1,2-b]pyridazin-7-yl)-N-((R)-2-fluoro-3-hydroxy-3-methyl-butyl)nicotinamide]			< 1	8	
COC(=O)N[C@]1(C)CC[C@@H](Nc2cc(-c3ccc4cc(C#N)cnn34)ncc2C(=O)NC[C@@H](F)C(C)(C)O)CC1 [Example 618, methyl ((1R,4r)-4-((2-(3-cyanopyrrolo[1,2-b]pyridazin-7-yl)-5-(((R)-2-fluoro-3-hydroxy-3-methylbutyl)carbamoyl)pyridin-4-yl)amino)-1-methylcyclohexyl) carbamate]	4	335			
CC(C)Nc1cc(-c2ccc3cc(C#N)cnn23)ncc1C(=O)N[C@H]1CC[C@H](NC(=O)C(F)(F)F)CC1 [Example 127, 6-(3-cyanopyrrolo[1,2-b]pyridazin-7-yl)-4-(isopropyl-amino)-N-((1r,4r)-4-(2,2,2-trifluoroacetamido)cyclohexyl)nicotinamide]		112	< 1		
CC(C)(O)[C@H](F)CNC(=O)c1cnc(-c2ccc3cc(C#N)cnn23)cc1N[C@H]1CC[C@](C)(N)CC1 [Example 535, (R)-4-((4-amino-4-methylcyclohexyl)amino)-6-(3-cyanopyrrolo[1,2-b]pyridazin-7-yl)-N-(2-fluoro-3-hydroxy-3-methylbutyl)nicotinamide]	2	999			
CC(C)(O)[C@H](F)CNC(=O)c1cnc(-c2ccc3cc(C#N)cnn23)cc1Nc1ccc(CNCC(F)F)cc1 [Example 872, (R)-6-(3-cyanopyrrolo[1,2-b]pyridazin-7-yl)-4-((4-(((2,2-difluoroethyl)amino)methyl)phenyl)amino)-N-(2-fluoro-3-hydroxy-3-methylbutyl)nicotinamide]			< 1	14	
CC(C)(O)[C@H](F)CNC(=O)c1cnc(-c2ccc3cc(C#N)cnn23)cc1NC1CCCC(S(C)(=O)=O)C1 (single isomer, unassigned) [Example 516]	2				595
Cc1cc(Nc2cc(-c3ccc4cc(C#N)cnn34)ncc2C(=O)NC[C@@H](F)C(C)(C)O)ncc1C(N)=O [Example 582, (R)-4-((5-carbamoyl-4-methylpyridin-2-yl)amino)-6-(3-cyanopyrrolo[1,2-b]pyridazin-7-yl)-N-(2-fluoro-3-hydroxy-3-methyl-butyl)nicotinamide]	3	389			
CC(C)(O)Cn1cc(Nc2cc(-c3ccc4cc(C#N)cnn34)ncc2C(=O)NC[C@@H](F)C(C)(C)O)cn1 [Example 138, (R)-6-(3-cyanopyrrolo[1,2-b]pyridazin-7-yl)-N-(2-fluoro-3-hydroxy-3-methylbutyl)-4-((1-(2-hydroxy-2-methylpropyl)-1H-pyrazol-4-yl)amino)nicotinamide]		117	1		
CN(C)c1ccc(Nc2cc(-c3ccc4cc(C#N)cnn34)ncc2C(=O)NC[C@@H](F)C(C)(C)O)cn1 [Example 679, (R)-6-(3-cyanopyrrolo[1,2-b]pyridazin-7-yl)-4-((6-(dimethylamino)pyridin-3-yl)amino)-N-(2-fluoro-3-hydroxy-3-methylbutyl)nicotinamide]	< 1	17			
CC(C)(O)[C@H](F)CNC(=O)c1cnc(-c2ccc3cc(C#N)cnn23)cc1NC1CCC(C(=O)N2CC(F)(F)C2)CC1 (stereo partly drawn) [Example 174, 6-(3-cyanopyrrolo[1,2-b]pyridazin-7-yl)-4-(((1r,4R)-4-(3,3-difluoroazetidine-1-carbonyl)cyclohexyl)amino)-N-((R)-2-fluoro-3-hydroxy-3-methylbutyl)nicotinamide]		92	1		
N#CCNC(=O)c1cnc(-c2ccc3cc(C#N)cnn23)cc1N[C@H]1CC[C@H](N2CCOC2=O)CC1 [Example 391, N-(cyanomethyl)-6-(3-cyanopyrrolo[1,2-b]pyridazin-7-yl)-4-(((1r,4r)-4-(2-oxooxazolidin-3-yl)cyclohexyl)amino) nicotinamide]		33	< 1		
CC(=O)NC(C)(C)CCNC(=O)c1cnc(-c2ccc3cc(C#N)cnn23)cc1NC12CCC(O)(CC1)CC2 [Example 344, N-(3-acetamido-3-methylbutyl)-6-(3-cyanopyrrolo[1,2-b]pyridazin-7-yl)-4-((4-hydroxybicyclo[2.2.2]octan-1-yl)amino) nicotinamide]		48	2		
CCOC(=O)CCNC(=O)c1cnc(-c2ccc3cc(C#N)cnn23)cc1NC12CCC(O)(CC1)CC2 [Example 801, ethyl 3-(6-(3-cyano-pyrrolo[1,2-b]pyridazin-7-yl)-4-((4-hydroxy-bicyclo[2.2.2]octan-1-yl)amino)nicotinamido) propanoate]			1	57	
CC(C)Nc1cc(-c2ccc3cc(C#N)cnn23)ncc1C(=O)N[C@@H]1CC[C@@H](O)C1 [Example 188, 6-(3-cyanopyrrolo[1,2-b]pyridazin-7-yl)-N-((1R,3R)-3-hydroxycyclopentyl)-4-(isopropylamino) nicotinamide]		275	8		
CC(C)(O)[C@H](F)CNC(=O)c1cnc(-c2ccc3cc(C#N)cnn23)cc1NC12CC(C#N)(C1)C2 [Example 378, (R)-4-((3-cyano-bicyclo[1.1.1]pentan-1-yl)amino)-6-(3-cyano-pyrrolo[1,2-b]pyridazin-7-yl)-N-(2-fluoro-3-hydroxy-3-methylbutyl) nicotinamide]		38	< 1		
COC(=O)NC12CCC(Nc3cc(-c4ccc5cc(C#N)cnn45)ncc3C(=O)NC[C@@H](F)C(C)(C)O)(CC1)CC2 [Example 311, (R)-methyl (4-((2-(3-cyano-pyrrolo[1,2-b]pyridazin-7-yl)-5-((2-fluoro-3-hydroxy-3-methylbutyl)carbamoyl)pyridin-4-yl)amino)bicyclo[2.2.2]octan-1-yl)carbamate]		15	< 1		
CC(=O)NC12CC(Nc3cc(-c4ccc5cc(C#N)cnn45)ncc3C(=O)NCC(F)(F)F)(C1)C2 [Example 277, 4-((3-acetamido-bicyclo[1.1.1]pentan-1-yl)amino)-6-(3-cyano-pyrrolo[1,2-b]pyridazin-7-yl)-N-(2,2,2-trifluoroethyl) nicotinamide]		383	5		
Cn1nccc1CNC(=O)c1cnc(-c2ccc3cc(C#N)cnn23)cc1NC12CCC(O)(CC1)CC2 [Example 934, 6-(3-cyanopyrrolo[1,2-b]pyridazin-7-yl)-4-((4-hydroxybicyclo[2.2.2]octan-1-yl)amino)-N-((1-methyl-1H-pyrazol-5-yl)methyl)nicotinamide]			3	271	
